Read-outs that look alike come from different tables or passages of the source.

In experiment [1] the test system is WT (wild-type HIV virus; recombinant NL4-3 virus). In words: microbe, parasite or virus in culture. It counts as cell-based, HIV-1. As to the method:
(§1) MT-2 cells and 293T cells were obtained from the NIH AIDS Research and Reference Reagent Program. MT-2 cells were propagated in RPMI 1640 media supplemented with 10% heat-inactivated fetal bovine serum, […]. The 293T cells were propagated in DMEM media supplemented with 10% heat-inactivated fetal bovine serum (FBS), 100 units/mL penicillin G and 100 μg/mL streptomycin. […] A recombinant NL4-3 virus, in which a section of the nef gene from NL4-3 was replaced with the Renilla luciferase gene, was used as a reference virus. In addition, residue Gag P373 was converted to P373S. […] Transfections were performed in 293T cells using LipofectAMINE PLUS from Invitrogen (Carlsbad, Calif.), according to manufacturer's instruction. The virus was titered in MT-2 cells using luciferase enzyme activity as a marker. Luciferase was quantitated using the Dual Luciferase kit from Promega (Madison, Wis.), with modifications to the manufacturer's protocol. The diluted Passive Lysis solution was pre-mixed with the re-suspended Luciferase Assay Reagent and the re-suspended Stop & Glo Substrate (2:1:1 ratio). Fifty (50) μL of the mixture was added to each aspirated well on assay plates and luciferase activity was measured immediately on a Wallac TriLux (Perkin-Elmer). Antiviral activities of inhibitors toward the recombinant virus were quantified by measuring luciferase activity in cells infected for 4-5 days with NLRluc recombinants in the presence serial dilutions of the inhibitor.
WT refers to wild-type HIV virus. […]

Experiment [2] relates to HIV-1 NL4-3 gag A364V virus. In words: microbe, parasite or virus in culture. It counts as cell-based. How it is done:
as §1
Both recombinant viruses were used as described above in the HIV cell culture assay for the NL4-3 virus.

The mark [3] stands for this setting: Human immunodeficiency virus 1, NL43, MT2, read-out: WT (EC50, uM), Table 1 regular screen, MT-2 cells, luciferase readout.
Setting [4] is: Human immunodeficiency virus 1, NL43, MT2, read-out: A364V (EC50, uM), Table 1 regular screen, MT-2 cells, luciferase readout.
Where [5] appears, read: Human immunodeficiency virus 1, NL43, MT2, read-out: WT (EC50, uM), Table 1 regular screen, class symbol.
The mark [6] stands for this setting: Human immunodeficiency virus 1, NL43, MT2, read-out: A364V (EC50, uM), Table 1 regular screen, class symbol.

On to `C=C(C)[C@@H]1CC[C@]2(NCCN3CCOC3=O)CC[C@]3(C)[C@H](CC[C@@H]4[C@@]5(C)CC=C(C6=CC[C@](CF)(C(=O)O)CC6)C(C)(C)[C@@H]5CC[C@]43C)[C@@H]12` [Example 2-24, (S)-1-(fluoromethyl)-4-((1R,3aS,5aR,5bR,7aR,11aS,11bR,13aR,13bR)-5a,5b,8,8,11a-pentamethyl-3a-((2-(2-oxooxazolidin-3-yl)ethyl)amino)-1-(prop-1-en-2-yl)-2,3,3a,4,5,5a,5b,6,7,7a,8,11,11a,11b,12,13,13a,13b-octadecahydro-1H-cyclopenta[a]chrysen-9-yl)cyclohex-3-enecarboxylic acid], for which the EC50 (commonly the concentration that produces a half-maximal response) was found to be 0.0053 µM in experiment [1] (setting [3]) and 0.932 µM in experiment [2] (setting [4]).

As for `C=C(C)[C@@H]1CC[C@]2(NCCN3CCNC3=O)CC[C@]3(C)[C@H](CC[C@@H]4[C@@]5(C)CC=C(C6=CC[C@](CF)(C(=O)O)CC6)C(C)(C)[C@@H]5CC[C@]43C)[C@@H]12` [Example 2-25, (S)-1-(fluoromethyl)-4-((1R,3aS,5aR,5bR,7aR,11aS,11bR,13aR,13bR)-5a,5b, 8,8,11a-pentamethyl-3a-((2-(2-oxoimidazolidin-1-yl)ethyl)amino)-1-(prop-1-en-2-yl)-2,3,3a,4,5,5a,5b,6,7,7a,8,11,11a,11b,12,13,13a,13b-octadecahydro-1H-cyclopenta[a]chrysen-9-yl)cyclohex-3-enecarboxylic acid], the results for the concentration giving a half-maximal response (EC50) in experiment [1] (setting [5]) and in experiment [2] (setting [6]) were < 0.05 µM and > 0.05 µM, respectively.

As for `C=C(C)[C@@H]1CC[C@]2(NCCN3CCN(C)C3=O)CC[C@]3(C)[C@H](CC[C@@H]4[C@@]5(C)CC=C(C6=CC[C@](CF)(C(=O)O)CC6)C(C)(C)[C@@H]5CC[C@]43C)[C@@H]12` [Example 2-26, (S)-1-(fluoromethyl)-4-((1R,3aS,5aR,5bR,7aR,11aS,11bR,13aR,13bR)-5a,5b,8,8,11a-pentamethyl-3a-((2-(3-methyl-2-oxoimidazolidin-1-yl)ethyl)amino)-1-(prop-1-en-2-yl)-2,3,3a,4,5,5a,5b,6,7,7a,8,11,11a,11b,12,13,13a,13b-octadecahydro-1H-cyclopenta[a]chrysen-9-yl)cyclohex-3-enecarboxylic acid], the concentration for a half-maximal effect (EC50) is < 0.05 µM in experiment [1] (setting [5]) and > 0.05 µM in experiment [2] (setting [6]).

Regarding `C=C(C)[C@@H]1CC[C@]2(NCCN3CCN(C(C)=O)C(C)(C)C3=O)CC[C@]3(C)[C@H](CC[C@@H]4[C@@]5(C)CC=C(C6=CC[C@](CF)(C(=O)O)CC6)C(C)(C)[C@@H]5CC[C@]43C)[C@@H]12` [Example 2-27, (S)-4-((1R,3aS,5aR,5bR,7aR,11aS,11bR,13aR,13bR)-3a-((2-(4-acetyl-3,3-dimethyl-2-oxopiperazin-1-yl)ethyl)amino)-5a,5b, 8,8,11a-pentamethyl-1-(prop-1-en-2-yl)-2,3,3a,4,5,5a,5b,6,7,7a,8,11,11a,11b,12,13,13a,13b-octadecahydro-1H-cyclopenta[a]chrysen-9-yl)-1-(fluoromethyl)cyclohex-3-enecarboxylic acid], the concentration for a half-maximal effect (EC50) in experiment [1] (setting [3]) came out at 0.00577 µM; in experiment [2] (setting [4]), 0.0201 µM.

As for `C=C(C)[C@@H]1CC[C@]2(NCCN3CCOCC3)CC[C@]3(C)[C@H](CC[C@@H]4[C@@]5(C)CC=C(C6=CC[C@](CF)(C(=O)O)CC6)C(C)(C)[C@@H]5CC[C@]43C)[C@@H]12` [Example 3, (S)-1-(fluoromethyl)-4-((1R,3aS,5aR,5bR,7aR,11aS,11bR,13aR,13bR)-5a,5b,8,8,11a-pentamethyl-3a-((2-morpholinoethyl)amino)-1-(prop-1-en-2-yl)-2,3,3a,4,5,5a,5b,6,7,7a,8,11,11a,11b,12,13,13a,13b-octadecahydro-1H-cyclopenta[a]chrysen-9-yl)cyclohex-3-enecarboxylic acid], the EC50 in experiment [1] (setting [3]) was found to be 0.00453 µM; in experiment [2] (setting [4]), 0.679 µM.

For `C=C(C)[C@@H]1CC[C@]2(NCCC3CCS(=O)(=O)CC3)CC[C@]3(C)[C@H](CC[C@@H]4[C@@]5(C)CC=C(C6=CC[C@](CF)(C(=O)O)CC6)C(C)(C)[C@@H]5CC[C@]43C)[C@@H]12` [Example 7, (S)-4-((1R,3aS,5aR,5bR,7aR,11aS,11bR,13aR,13bR)-3a-((2-(1,1-dioxidotetrahydro-2H-thiopyran-4-yl)ethyl)amino)-5a,5b,8,8,11a-pentamethyl-1-(prop-1-en-2-yl)-2,3,3a,4,5,5a,5b,6,7,7a,8,11,11a,11b,12,13,13a,13b-octadecahydro-1H-cyclopenta[a]chrysen-9-yl)-1-(fluoromethyl)cyclohex-3-enecarboxylic acid], the 50% effective concentration (EC50) in experiment [1] (setting [5]) was < 0.05 µM; in experiment [2] (setting [6]) it was > 0.05 µM.

With `C=C(C)[C@@H]1CC[C@]2(NC(=O)CC3CCOCC3)CC[C@]3(C)[C@H](CC[C@@H]4[C@@]5(C)CC=C(C6=CC[C@](CF)(C(=O)O)CC6)C(C)(C)[C@@H]5CC[C@]43C)[C@@H]12` [Example 8, (S)-1-(fluoromethyl)-4-((1R,3aS,5aR,5bR,7aR,11aS,11bR,13aR,13bR)-5a,5b,8,8,11a-pentamethyl-1-(prop-1-en-2-yl)-3a-(2-(tetrahydro-2H-pyran-4-yl)acetamido)-2,3,3a,4,5,5a,5b,6,7,7a,8,11,11a,11b,12,13,13a,13b-octadecahydro-1H-cyclopenta[a]chrysen-9-yl)cyclohex-3-enecarboxylic acid], the concentration giving a half-maximal response (EC50) in experiment [1] (setting [5]) and in experiment [2] (setting [6]) was > 0.05 µM throughout.

For the compound `C=C(C)[C@@H]1CC[C@]2(NCCC3CCOCC3)CC[C@]3(C)[C@H](CC[C@@H]4[C@@]5(C)CC=C(C6=CC[C@](CF)(C(=O)O)CC6)C(C)(C)[C@@H]5CC[C@]43C)[C@@H]12` [Example 9, (S)-1-(fluoromethyl)-4-((1R,3aS,5aR,5bR,7aR,11aS,11bR,13aR,13bR)-5a,5b,8,8,11a-pentamethyl-1-(prop-1-en-2-yl)-3a-((2-(tetrahydro-2H-pyran-4-yl)ethyl)amino)-2,3,3a,4,5,5a,5b,6,7,7a,8,11,11a,11b,12,13,13a,13b-octadecahydro-1H-cyclopenta[a]chrysen-9-yl)cyclohex-3-enecarboxylic acid], the results for the EC50 in experiment [1] (setting [5]) and in experiment [2] (setting [6]) were < 0.05 µM and > 0.05 µM, respectively.

As to `C=C(C)[C@@H]1CC[C@]2(CNCC(C)(C)N3CCS(=O)(=O)CC3)CC[C@]3(C)[C@H](CC[C@@H]4[C@@]5(C)CC=C(C6=CC[C@](CF)(C(=O)O)CC6)C(C)(C)[C@@H]5CC[C@]43C)[C@@H]12` [Example 10, (S)-4-((1R,3aS,5aR,5bR,7aR,11aS,11bR,13aR,13bR)-3a-(((2-(1,1-dioxidothiomorpholino)-2-methylpropyl)amino)methyl)-5a,5b, 8,8,11a-pentamethyl-1-(prop-1-en-2-yl)-2,3,3a,4,5,5a,5b,6,7,7a,8,11,11a,11b,12,13,13a,13b-octadecahydro-1H-cyclopenta[a]chrysen-9-yl)-1-(fluoromethyl)cyclohex-3-enecarboxylic acid], the EC50 in experiment [1] (setting [5]) and in experiment [2] (setting [6]) was < 0.05 µM throughout.

Consider `C=C(C)[C@@H]1CC[C@]2(CNCCCN3CCS(=O)(=O)CC3)CC[C@]3(C)[C@H](CC[C@@H]4[C@@]5(C)CC=C(C6=CC[C@@](CF)(C(=O)O)CC6)C(C)(C)[C@@H]5CC[C@]43C)[C@@H]12` [Example 11, (R)-4-((1R,3aS,5aR,5bR,7aR,11aS,11bR,13aR,13bR)-3a-(((3-(1,1-dioxidothiomorpholino)propyl)amino)methyl)-5a,5b, 8,8,11a-pentamethyl-1-(prop-1-en-2-yl)-2,3,3a,4,5,5a,5b,6,7,7a,8,11,11a,11b,12,13,13a,13b-octadecahydro-1H-cyclopenta[a]chrysen-9-yl)-1-(fluoromethyl)cyclohex-3-enecarboxylic acid], for which the EC50 in experiment [1] (setting [5]) and in experiment [2] (setting [6]) was < 0.05 µM throughout.

`C=C(C)[C@@H]1CC[C@]2(CN(CCCN3CCS(=O)(=O)CC3)C(C)=O)CC[C@]3(C)[C@H](CC[C@@H]4[C@@]5(C)CC=C(C6=CC[C@@](CF)(C(=O)O)CC6)C(C)(C)[C@@H]5CC[C@]43C)[C@@H]12` [Example 12, (R)-4-((1R,3aS,5aR,5bR,7aR,11aS,11bR,13aR,13bR)-3a-((N-(3-(1,1-dioxidothiomorpholino)propyl)acetamido)methyl)-5a,5b,8,8,11a-pentamethyl-1-(prop-1-en-2-yl)-2,3,3a,4,5,5a,5b,6,7,7a,8,11,11a,11b,12,13,13a,13b-octadecahydro-1H-cyclopenta[a]chrysen-9-yl)-1-(fluoromethyl)cyclohex-3-enecarboxylic acid]: the EC50 in experiment [1] (setting [5]) is < 0.05 µM; in experiment [2] (setting [6]), > 0.05 µM.

The values are drawn from patent US10245275B2 (ViiV HEALTHCARE UK (NO.4) LIMITED, priority 2014, dated 2019).
